Data on 2 molecules can be found in EP0353678B1, “FR-901154 and FR-901155 substances, a process for their production” (priority 1988, dated 1990).

SMILES strings stand for the structures.

Data set [1] concerns Aspergillus niger IFO 4417. As to the kind of experiment: Antimicrobial activity against fungi, serial agar dilution method in Sabouraud agar. It is filed as cell-based. Also on record: unit not given here. The following applies: 30°C for 24 hours. The protocol:
Antimicrobial activities of the FR-901154 and FR-901155 Substances Antimicrobial activities of the FR-901154 and FR-901155 substances against various fungi were determined by a serial agar dilution method in a Sabouraud agar. Minimum inhibitory concentrations (MIC) were expressed in terms of »g/ml after incubation at 30°C for 24 hours. […]

Data set [2] is described as follows: Solubility (physical and chemical properties). Type of data set: physicochemical. The procedure:
(23)/(D) [formula] : -74° (c = 1.8, CHCl₃) (8) Ultraviolet Absorption Spectrum: end absorption (9) Infrared Absorption Spectrum: [drawing 4] 3570, 3500, 2940, 2880, 2820, 1740, 1710, 1700, 1640, 1460, 1450, 1380, 1350, 1320, 1280, 1230, 1190, 1170, 1140, 1100, 1090, 1050, 1040, 1000, 990, 940, 910 cm⁻¹ (10) ¹³C Nuclear Magnetic Resonance Spectrum: δ(ppm, CDCl₃, 100MHz): [formula] [formula] (11) ¹H Nuclear Magnetic Resonance Spectrum: the chart of which being shown in Figure 3, (12) Thin Layer Chromatography: […]

On to `C=CCC1/C=C(\C)CC(C)CC(OC)C2OC(O)(C(=O)C(=O)N3CCCCC3C(=O)OC(/C(C)=C/C3CCC(O)C(O)C3)C(C)C(O)CC1=O)C(C)CC2OC` (stereo not shown) [FR-901154], for which, in data set [1], the “MIC Value” stood at 0.025.
As for `CCCC1C=C(C)CC(C)CC(OC)C2OC(O)(C(=O)C(=O)N3CCCCC3C(=O)OC(C(C)=CC3CCC(O)C(OC)C3)C(C)C(O)CC1=O)C(C)CC2OC` (stereo not shown) [FR-901156, 1,14-dihydroxy-12-[2-(4-hydroxy-3-methoxycyclohexyl)-1-methylvinyl]-23,25-dimethoxy-13,19,21,27-tetramethyl-17-propyl-11,28-dioxa-4-azatricyclo[22.3.1.0^4,9]octacos-18-ene-2,3,10,16-tetraone], the Solubility entry in data set [2] (methanol, ethanol, acetone, ethyl acetate, chloroform, diethyl ether, benzene and acetonitrile) is reported as “Soluble”; in data set [2] (n-hexane and petroleum ether) it was “Sparingly Soluble”; in data set [2] (water) it was “Insoluble”.
